Experimental data taken from ChEMBL document CHEMBL4823254, “Tetrahydroquinoline-Capped Histone Deacetylase 6 Inhibitor SW-101 Ameliorates Pathological Phenotypes in a Charcot-Marie-Tooth Type 2A Mouse Model” (J Med Chem, 2021).
Activity calls are given as the source filed them.

Tests used:
[1] = Stability in human pooled liver microsomes assessed as parent compound remaining measured at 60 mins in presence of NADPH by LC-MS/MS analysis; format: ADME, Microsome; settings: pooled liver microsomes, read-out: Stabilty
Histone deacetylase 4 = Histone deacetylase 4 (Homo sapiens, UniProt P56524); test: Inhibition of recombinant human HDAC4 using Boc-Lys(TFA)-AMC as substrate preincubated for 10 mins followed by substrate addition and measured after 30 mins by fluorescence-based assay
Chain of Histone deacetylase 4 (P56524 whole entry): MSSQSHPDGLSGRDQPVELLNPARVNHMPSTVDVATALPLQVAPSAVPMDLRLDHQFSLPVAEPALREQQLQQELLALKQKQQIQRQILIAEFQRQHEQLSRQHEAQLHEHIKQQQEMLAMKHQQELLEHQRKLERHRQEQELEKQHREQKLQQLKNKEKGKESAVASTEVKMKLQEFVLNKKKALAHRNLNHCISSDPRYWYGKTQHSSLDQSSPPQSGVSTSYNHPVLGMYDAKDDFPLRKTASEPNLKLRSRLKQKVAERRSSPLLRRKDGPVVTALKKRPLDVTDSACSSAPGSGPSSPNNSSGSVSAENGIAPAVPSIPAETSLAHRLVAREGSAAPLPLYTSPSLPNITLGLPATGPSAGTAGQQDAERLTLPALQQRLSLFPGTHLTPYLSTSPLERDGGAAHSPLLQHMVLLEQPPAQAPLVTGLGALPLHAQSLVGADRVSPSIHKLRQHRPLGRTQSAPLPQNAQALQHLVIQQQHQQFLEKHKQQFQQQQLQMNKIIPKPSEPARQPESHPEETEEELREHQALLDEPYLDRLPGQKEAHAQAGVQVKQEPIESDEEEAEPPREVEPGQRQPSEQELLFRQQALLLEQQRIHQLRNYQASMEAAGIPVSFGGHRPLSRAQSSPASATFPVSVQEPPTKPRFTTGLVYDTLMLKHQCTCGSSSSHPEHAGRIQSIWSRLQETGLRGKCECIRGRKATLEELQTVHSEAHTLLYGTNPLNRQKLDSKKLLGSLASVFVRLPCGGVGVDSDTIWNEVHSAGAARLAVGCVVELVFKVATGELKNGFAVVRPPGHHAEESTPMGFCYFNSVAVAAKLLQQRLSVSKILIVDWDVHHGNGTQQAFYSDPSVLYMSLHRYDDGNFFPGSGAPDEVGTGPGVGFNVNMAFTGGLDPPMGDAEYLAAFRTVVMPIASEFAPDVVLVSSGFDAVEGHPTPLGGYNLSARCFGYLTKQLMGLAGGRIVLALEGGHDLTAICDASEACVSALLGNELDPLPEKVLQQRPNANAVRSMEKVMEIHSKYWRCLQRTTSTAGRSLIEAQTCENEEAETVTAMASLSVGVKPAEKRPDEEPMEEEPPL

Histone deacetylase 5 = Histone deacetylase 5 (Homo sapiens, UniProt Q9UQL6); test: Inhibition of recombinant human HDAC5 using Boc-Lys(TFA)-AMC as substrate preincubated for 10 mins followed by substrate addition and measured after 30 mins by fluorescence-based assay
Chain of Histone deacetylase 5 (Q9UQL6 whole entry): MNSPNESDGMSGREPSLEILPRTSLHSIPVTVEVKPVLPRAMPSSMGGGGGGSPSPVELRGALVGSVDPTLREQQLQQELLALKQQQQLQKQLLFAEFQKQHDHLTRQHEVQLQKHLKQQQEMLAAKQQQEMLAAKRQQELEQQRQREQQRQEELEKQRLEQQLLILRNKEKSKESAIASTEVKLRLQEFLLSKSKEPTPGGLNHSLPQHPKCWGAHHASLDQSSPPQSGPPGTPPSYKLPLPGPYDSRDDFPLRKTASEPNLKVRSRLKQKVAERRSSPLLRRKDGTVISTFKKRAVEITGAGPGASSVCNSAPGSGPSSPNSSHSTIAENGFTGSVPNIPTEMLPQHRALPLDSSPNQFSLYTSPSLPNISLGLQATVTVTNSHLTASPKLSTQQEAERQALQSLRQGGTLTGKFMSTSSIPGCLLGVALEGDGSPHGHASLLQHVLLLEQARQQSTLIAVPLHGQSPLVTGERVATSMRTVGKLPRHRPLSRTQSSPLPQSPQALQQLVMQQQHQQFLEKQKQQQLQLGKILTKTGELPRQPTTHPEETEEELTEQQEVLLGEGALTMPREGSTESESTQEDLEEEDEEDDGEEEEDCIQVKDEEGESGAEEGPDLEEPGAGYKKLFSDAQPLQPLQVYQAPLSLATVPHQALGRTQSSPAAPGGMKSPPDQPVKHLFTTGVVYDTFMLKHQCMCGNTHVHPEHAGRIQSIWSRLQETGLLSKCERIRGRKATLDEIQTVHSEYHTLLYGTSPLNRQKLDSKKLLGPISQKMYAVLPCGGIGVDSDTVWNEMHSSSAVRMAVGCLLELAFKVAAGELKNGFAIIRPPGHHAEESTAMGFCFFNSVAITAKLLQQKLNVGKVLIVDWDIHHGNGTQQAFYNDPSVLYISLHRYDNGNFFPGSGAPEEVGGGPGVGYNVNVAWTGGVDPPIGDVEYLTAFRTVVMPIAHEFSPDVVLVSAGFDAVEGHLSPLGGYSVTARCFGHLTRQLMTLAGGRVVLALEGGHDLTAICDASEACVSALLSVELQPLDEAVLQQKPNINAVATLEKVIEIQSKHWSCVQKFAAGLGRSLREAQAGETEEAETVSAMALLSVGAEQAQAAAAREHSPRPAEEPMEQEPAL

Histone deacetylase 9 = Histone deacetylase 9 (Homo sapiens, UniProt Q9UKV0); test: Inhibition of recombinant human HDAC9 using Boc-Lys(TFA)-AMC as substrate preincubated for 10 mins followed by substrate addition and measured after 30 mins by fluorescence-based assay
Chain of Histone deacetylase 9 (Q9UKV0 whole entry): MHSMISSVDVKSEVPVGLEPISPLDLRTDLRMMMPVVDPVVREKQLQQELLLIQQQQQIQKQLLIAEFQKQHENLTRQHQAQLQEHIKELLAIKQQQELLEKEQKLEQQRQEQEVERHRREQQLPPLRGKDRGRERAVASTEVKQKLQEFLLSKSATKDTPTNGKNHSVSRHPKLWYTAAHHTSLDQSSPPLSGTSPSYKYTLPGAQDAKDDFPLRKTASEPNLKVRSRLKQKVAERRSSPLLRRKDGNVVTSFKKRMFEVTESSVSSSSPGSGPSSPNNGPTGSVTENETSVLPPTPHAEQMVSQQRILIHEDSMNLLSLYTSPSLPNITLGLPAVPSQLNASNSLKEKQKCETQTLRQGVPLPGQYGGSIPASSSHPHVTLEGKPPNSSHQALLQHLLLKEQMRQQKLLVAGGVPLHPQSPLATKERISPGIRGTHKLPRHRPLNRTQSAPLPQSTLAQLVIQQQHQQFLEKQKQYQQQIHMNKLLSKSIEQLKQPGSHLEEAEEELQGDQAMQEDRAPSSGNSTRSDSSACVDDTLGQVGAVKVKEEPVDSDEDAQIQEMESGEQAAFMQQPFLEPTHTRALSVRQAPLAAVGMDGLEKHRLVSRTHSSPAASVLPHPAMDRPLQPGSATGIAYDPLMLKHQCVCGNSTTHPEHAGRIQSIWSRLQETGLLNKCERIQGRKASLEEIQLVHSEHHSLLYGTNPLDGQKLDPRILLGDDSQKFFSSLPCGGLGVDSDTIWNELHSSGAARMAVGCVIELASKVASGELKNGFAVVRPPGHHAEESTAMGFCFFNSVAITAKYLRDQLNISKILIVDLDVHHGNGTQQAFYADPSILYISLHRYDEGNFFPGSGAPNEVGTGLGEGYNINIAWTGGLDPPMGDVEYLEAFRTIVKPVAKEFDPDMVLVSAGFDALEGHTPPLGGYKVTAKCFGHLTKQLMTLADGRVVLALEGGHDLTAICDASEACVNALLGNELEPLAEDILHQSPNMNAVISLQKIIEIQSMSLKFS

[2] = Half life in mouse plasma; format: ADME, cell-free
[3] = Half life in human plasma; format: ADME, cell-free
[4] = Half life in mouse liver s9 fraction; format: ADME, subcellular
[5] = Genotoxicity in Salmonella typhimurium TA100 at 5 to 100 uM in presence of liver S9 fraction by Ames test; format: toxicity; settings: salmonella enterica subsp. enterica serovar typhimurium, s9, 100 µM; dose 5-100 µM
[6] = Genotoxicity in Salmonella typhimurium TA1537 at 5 to 100 uM in absence of liver S9 fraction by Ames test; format: toxicity; settings: salmonella enterica subsp. enterica serovar typhimurium, s9, 100 µM; dose 5-100 µM
[7] = Protein binding in human plasma; format: ADME, cell-free; settings: read-out: PPB (converted)
[8] = Cmax in C57BL/6J mouse plasma at 15 mg/kg, ip; format: ADME, organism-based; design: route intraperitoneal, dose 15 mg/kg
[9] = Unbound AUC (0 to infinity) in C57BL/6J mouse plasma at 15 mg/kg, ip; format: ADME, organism-based; settings: in vivo
[10] = Half life in C57BL/6J mouse plasma at 15 mg/kg, ip; format: ADME, organism-based
[11] = Cmax in C57BL/6J mouse brain at 15 mg/kg, ip; format: ADME, organism-based; design: route intraperitoneal, dose 15 mg/kg
[12] = Total AUC (0 to infinity) in C57BL/6J mouse brain at 15 mg/kg, ip; format: ADME, organism-based; design: time AUCmax, route intraperitoneal, dose 15 mg/kg
Mus musculus [13] = test: Neuroprotective activity in hMFN2-induced CMT2A transgenic mouse model assessed as assessed as latency to fall at 20 mg/kg, ip qd administered for 26 weeks when treated prior with compound dissolved in PBS/PEG400/Tween80/EtOH (50/35/10/5) wt% as vehicle by rotarod test; format: functional, organism-based
Mus musculus [14] = test: Neuroprotective activity in hMFN2-induced CMT2A transgenic mouse model assessed as increase in paw withdrawal threshold at 20 mg/kg, ip qd by von Frey test; format: functional, organism-based
Mus musculus [15] = test: Neuroprotective activity in hMFN2-induced CMT2A transgenic mouse model assessed as increase in paw withdrawal threshold at 20 mg/kg, ip qd administered when treated prior with compound dissolved in PBS/PEG400/Tween80/EtOH (50/35/10/5) wt% as vehicle by von Frey test; format: functional, organism-based
[16] = biological target: T1, Protein deacetylase HDAC6 (Mus musculus) (UniProt Q9Z2V5); test: In vivo inhibition of HDAC6 in hMFN2-induced CMT2A transgenic mouse model assessed as increase in acetylated tubulin in distal sciatic nerve tissue at 20 mg/kg, ip qd administered for 22 weeks when treated prior with compound dissolved in PBS/PEG400/Tween80/EtOH (50/35/10/5) wt% as vehicle by Western blot analysis; format: functional, organism-based
T1 sequence (whole entry): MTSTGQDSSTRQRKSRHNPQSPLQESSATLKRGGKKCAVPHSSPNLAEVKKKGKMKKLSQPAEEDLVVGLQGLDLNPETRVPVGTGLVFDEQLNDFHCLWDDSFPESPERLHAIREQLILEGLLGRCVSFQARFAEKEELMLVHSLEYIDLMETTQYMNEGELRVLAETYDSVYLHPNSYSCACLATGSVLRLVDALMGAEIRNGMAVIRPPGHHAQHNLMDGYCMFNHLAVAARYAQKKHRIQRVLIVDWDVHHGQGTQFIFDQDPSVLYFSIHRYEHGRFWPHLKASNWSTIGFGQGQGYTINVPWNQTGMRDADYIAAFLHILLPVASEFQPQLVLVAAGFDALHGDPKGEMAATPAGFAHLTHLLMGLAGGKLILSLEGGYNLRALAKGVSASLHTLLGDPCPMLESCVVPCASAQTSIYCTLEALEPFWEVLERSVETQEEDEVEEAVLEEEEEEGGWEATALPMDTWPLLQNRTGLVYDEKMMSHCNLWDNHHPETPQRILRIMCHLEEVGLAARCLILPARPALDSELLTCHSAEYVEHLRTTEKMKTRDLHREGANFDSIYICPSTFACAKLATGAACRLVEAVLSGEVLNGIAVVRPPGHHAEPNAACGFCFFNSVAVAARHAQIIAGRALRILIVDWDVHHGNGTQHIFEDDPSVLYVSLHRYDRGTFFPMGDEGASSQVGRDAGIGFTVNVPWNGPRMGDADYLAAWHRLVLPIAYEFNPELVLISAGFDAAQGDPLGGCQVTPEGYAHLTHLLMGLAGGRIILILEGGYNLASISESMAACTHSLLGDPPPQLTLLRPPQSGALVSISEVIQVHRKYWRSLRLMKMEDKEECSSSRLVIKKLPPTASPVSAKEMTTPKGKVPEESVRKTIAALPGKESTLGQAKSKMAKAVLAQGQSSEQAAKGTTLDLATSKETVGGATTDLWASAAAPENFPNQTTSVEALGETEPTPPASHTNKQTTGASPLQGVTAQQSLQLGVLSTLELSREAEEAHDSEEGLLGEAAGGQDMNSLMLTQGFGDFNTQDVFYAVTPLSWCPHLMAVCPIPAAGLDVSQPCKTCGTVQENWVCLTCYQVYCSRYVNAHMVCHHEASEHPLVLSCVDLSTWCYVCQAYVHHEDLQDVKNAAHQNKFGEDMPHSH

[17] = Toxicity in mouse assessed as adverse effect at 10 to 20 mg/kg, ip administered for 3 days every 12 hrs; format: organism-based; settings: in vivo, 72 h, dose 10-20 mg/kg, time 3 day
Histone deacetylase 8 = biological target: T2, Histone deacetylase 8 (Homo sapiens, UniProt Q9BY41)
T2 sequence (Q9BY41 whole entry): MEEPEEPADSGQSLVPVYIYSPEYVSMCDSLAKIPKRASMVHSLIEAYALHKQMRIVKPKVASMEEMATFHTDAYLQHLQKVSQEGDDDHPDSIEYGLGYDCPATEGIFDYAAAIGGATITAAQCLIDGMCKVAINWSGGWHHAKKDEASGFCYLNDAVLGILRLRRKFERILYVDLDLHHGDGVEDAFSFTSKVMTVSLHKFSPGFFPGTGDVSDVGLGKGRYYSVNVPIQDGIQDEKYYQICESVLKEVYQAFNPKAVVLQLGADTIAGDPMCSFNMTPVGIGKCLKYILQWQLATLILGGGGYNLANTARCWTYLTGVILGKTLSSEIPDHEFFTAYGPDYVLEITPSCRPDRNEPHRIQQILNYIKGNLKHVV
Description: Inhibition of recombinant human HDAC8 using Boc-Lys(TFA)-AMC as substrate preincubated for 10 mins followed by substrate addition and measured after 30 mins by fluorescence-based assay

- remaining at 1 h [1]: 76.3%
- IC50 (Histone deacetylase 4): 0.454 µM
- IC50 (Histone deacetylase 5): 0.276 µM
- IC50 (Histone deacetylase 9): 0.65 µM
- half-life [2]: 2.12 h
- half-life [3]: > 6.67 h
- half-life [4]: 3.55 h
- fraction unbound [7]: 0.142
- Cmax [8]: 3.58 µg/mL
- fAUC [9]: 0.421 µg·h/mL
- half-life [10]: 0.44 h
- Cmax [11]: 0.223 µg/mL
- AUC(0-inf) [12]: 0.28 µg·h/mL
- inhibition [16]: inactive
- IC50 (Histone deacetylase 8): 0.651 µM
Structure (SMILES): NC(=O)c1ccc2c(c1)CCCN2Cc1ccc(C(=O)NO)cc1
- Activity [5]: Non-Toxic
- Activity [6]: Non-Toxic
- Activity (Mus musculus [13]): Active
- Activity (Mus musculus [14]): Active
- Activity (Mus musculus [15]): Active
- Activity [17]: Non-Toxic
